Measurements published in US20020065225A1, “Methods of determining altered NDPK functions and the diagnosis of cystic fibrosis” (priority 1999, published 2002).

Assays:
[1] = tested on: NDPK; assay: Ovine CFTR peptide affinity column with ovine tracheal epithelial membrane proteins; format: binding, sheep; details: for Western blot of eluate with antibodies specific to NDPK: eluate from ovine CFTR peptide column; for phosphorylated species in eluate of peptide column (SDS-PAGE, electronic autoradiography): ovine tracheal membrane proteins, eluate phosphorylated with γ[32P]ATP
Method: (§1) We speculated that this part of CFTR would associate with protein(s) from the chloride-sensitive phosphorylation cascade. We constructed peptides corresponding to the CFTR region encompassing position 508 of human CFTR. Membrane proteins from wild-type human nasal epithelium were incubated with either of two peptides corresponding to the wild-type or the ΔF508 mutant form of CFTR (KENIIFGVSYDEYR or KENIIGVSYDEYR, respectively) linked to an affinity matrix (^18). […] In order to generate sufficient material to characterise the bound protein(s), this experiment was repeated using the equivalent ovine wild-type CFTR peptide (KDNIIFGVSYDEYR) and membrane proteins from ovine tracheal epithelia (^18) Proteins eluted from this peptide column were phosphorylated with γ[^32P]ATP and separated by SDS-PAGE. […] In contrast, the failure of membrane-delimited UTP production in CF does provide an additional rationale for the administration of UTP in this disease.
(§2) 18. Human nasal epithetium: Apical membrane proteins from human nasal epithelium were solubilised at 4° C. (10 mM KOH, 0.1% Tween), dialysed against PBS-Tween containing protease inhibitors (3 h) and spun at 150 000 g for 1 h. The supernatant was then re-circulated over affinity supports containing either synthetic peptide KENIIFGVSYDEYR or KENIIGVSYDEYR, corresponding to the F508 region of wild-type or […] mutant CFTR, respectively. The columns were washed with PBS-Tween (0.1%) and eluted with 1M KI. Fractions (40×1 ml) were slot blotted onto nitrocellulose under vacuum. The blots were washed in buffer A (10 mM MOPS pH 7.9, 1 mM MgCl2, 0.05% Triton X-100, 1 mM ATP) for 10 min and subsequently labelled with 5 nM γ[^32P]ATP (specific activity 222 TBq/mmol) in buffer A (1 h at room temperature). The blots were finally washed with PBS-Tween (0.1%) for 30 min (6 buffer changes) and visualised using electronic autoradiography. Sheep tracheal epithelia. The pelleted membranes from sheep tracheal epithelia were solubilised with 0.1% glucopyranoside in 50 mM HEPES pH 7.4 on ice for 1 h and centrifuged at 100 000×g for 30 min. The supernatant was applied to a peptide affinity column (KDNIIFGVSYDEYRC, corresponding to the F508 region of ovine wild-type CFTR, coupled to epoxy activated POROS 20 media using the additional terminal cysteine residue). The column was washed with load buffer containing 1M NaCl, followed by load buffer only (100 column volumes or stable OD280˜0.015). Bound proteins were eluted with 50 mM glycine-NaOH pH 11 containing 0.1% glucopyranoside and immediately neutralised with 1M Tris-HCl pH 8.0.

[2] = tested on: Anx I; assay: Anx I phosphorylation in murine tracheal epithelium membrane and cytosol with ATP+GDP; format: biochemical, mouse
From the text: Cyclic AMP controls both the membrane aggregating and the cation channel properties of Anx I via a proposed cAMP binding site^20. Because cAMP-dependent fluid secretion^22 and vesicle trafficking^2,3,22 are both disordered in CF airway and annexins share significant homology with the region of CFTR (amino acids 500-529) bearing the common disease mutation^7, we speculated that annexins may be involved in CF. […] We observed an absence of a 37 kDa phosphoprotein in plasma membranes from the airway of a CF mouse model, Cftr^tm1cam, which expresses no CFTR (FIG. 6a, quantitation FIG. 6e). We confirmed the identity of murine p37 as Anx I by immunoprecipitating pre-phosphorylated [^32P]p37 from wild type membranes using antibodies against Anx I (FIG. 5c). […] Because Anx I is a membrane-associated protein which shuttles between membrane and cytosol^26, we studied Anx I phosphorylation in cytosol from wild-type and Cftr^tm1Cam. In the absence of GDP and in contrast to the membrane, we found no differences in Anx I phosphorylation between wild-type and Cftr^tm1Cam cytosol (FIG. 6b; quantitation f). We confirmed the identity of cytosolic p37 as Anx I by immunoprecipitating pre-phosphorylated [^32P]p37 as described above (data not shown). […] It is possible that the excess protein results from a compensatory increase in synthesis to overcome a disruption of function. Excess Anx I protein is consistent with the elevated plasma concentrations of the calcium-dependent annexin binding proteins (S100A8 and A9 or CF antigen) in both CF carriers and patients^27. S100 proteins form obligate dimers^6 which bring together the N termini of different Anx I monomers to promote membrane-membrane fusion.
Swiss mice (wild-type) (6-10 weeks old) and mutant Cftr^tm1Cam mice^12 (4-12 weeks old) were used in this study. […]
As described previously^15. […] Pre-stained molecular weight markers were used to avoid staining and destaining of gels prior to imaging and quantification. The incorporation of ^32PO4 into individual protein bands was detected using electronic autoradiography (Canberra-Packard Instant Imager).

[3] = tested on: p37 (Anx I); details: cited from earlier work
[4] = tested on: annexin I; assay: Inhibition of annexin I phosphorylation in a membrane preparation; format: biochemical
Method: Following pre-incubation with N^6-monobutyryladenosine 3′:5′ cyclic monophosphate (N^6-mbcAMP) (0-1 mM) at 4° C. for 30 min, a membrane preparation was phosphorylated with γ[^32P] ATP at 37° C. for 5 min.
As described previously^15. Phosphorylation and Electronic Autoradiography - Briefly, proteins were phosphorylated with either 37 kBq γ[^32P] ATP or GTP (final nucleotide concentration, 16 nM) in 10 mM MOPS pH 7.9 containing 5 mM DTT. The reaction was terminated by adding 5x Laemmli sample buffer (Laemmli (1970) Nature 227, 680-685) and the proteins separated by SDS-PAGE using 12.5% polyacrylamide gels. Pre-stained molecular weight markers were used to avoid staining and destaining of gels prior to imaging and quantification. The incorporation of ^32PO4 into individual protein bands was detected using electronic autoradiography (Canberra-Packard Instant Imager).

[5] = tested on: NDPK; assay: Peptide-affinity column binding of human nasal membrane proteins, eluate labelled with [32P]ATP; details: wild-type human nasal epithelium membrane proteins, eluate slot blots exposed to [32P]ATP
Method: as §1
as §2, with “The supernatant was applied to a peptide affinity column (KDNIIFGVSYDEYRC, corresponding to the F508 region of ovine wild-type CFTR, coupled to epoxy activated POROS 20 media using the additional terminal cysteine residue). The column was washed with load buffer containing 1M NaCl, followed by load buffer only (100 column volumes or stable OD280˜0.015). Bound proteins were eluted with 50 mM glycine-NaOH pH 11 containing 0.1% glucopyranoside and immediately neutralised with 1M Tris-HCl pH 8.0.” left out

[6] = tested on: Anx I; assay: Nature of the phospho-linkage on ovine [32P]Anx I; format: biochemical; details: data not shown
Method: Previously, annexins have been reported, to be phosphorylated on serine and tyrosine residues within the N-terminus by PKC and EGF receptor kinase, respectively^18 but acid hydrolysis (6 N HCl at 105° C., 2 h) of ovine [^32P]Anx I. (labelled for 5 min) removed>95% of the radioactivity from p37 (Anx I) (data not shown). Further analysis confirmed that this phospho-linkage was not on serine, threonine or tyrosine residues because it was acid labile (FIG. 5e, lanes 1 and 3), base stable (FIG. 5e, lane 2) and inhabitable following pre-incubation with diethylpyrocarbamate (modifies histidine residues, data not shown). […] To our knowledge, this is the first report in annexins. […] Histidine phosphorylation may regulate the proposed functions of the core—cation channel permeation^20 and/or membrane fusion^6,8.
As described previously^19. In order to determine the nature of the phosphate linkage on [^32-P]-annexin I, a membrane fraction was labelled with γ[^32P] GTP or γ[^32P] ATP for 5 min at 37° C. The reaction was terminated with 5x Laemmli sample buffer. Phosphorylated protein (10 μg) was then incubated at 30° C. for 10 min in reaction mixtures containing phosphorylation buffer alone, 0.1 N HCl (pH 1), 0.1 N NaOH (pH 13) or 0.8 M hydroxylamine-0.1 M acetate (pH 5.2). […]

KDNIIFGVSYDEYR [equivalent ovine wild-type CFTR peptide; coupled to the column via an additional terminal cysteine]
Western blot of eluate with antibodies specific to NDPK [1]: detected a 21 kDa protein, indicating the presence of NDPK | Western blot of eluate with antibodies specific to NDPK ([1]; listed as ovine CFTR peptide): detected a 21 kDa protein | phosphorylated species in eluate of peptide column (SDS-PAGE, electronic autoradiography) [1]: a 19/21 kDa doublet was the sole phosphorylated species in the eluate | phosphorylated species in eluate of peptide column (SDS-PAGE, electronic autoradiography) ([1]; listed as ovine CFTR peptide): showed a 19/21 kDa phosphoprotein

Nc1nc2c(ncn2[C@@H]2O[C@H](COP(=O)(O)OP(=O)(O)O)[C@@H](O)[C@H]2O)c(=O)[nH]1 [GDP]
effect on Anx I phosphorylation, Cftr^tm1Cam cytosol ([2]; Cftr^tm1Cam cytosol, GDP added to γ[32P]ATP): partial restoration of Anx I phosphorylation | effect on histidine phosphorylation of Anx I, Cftr^tm1Cam membranes ([2]; Cftr^tm1Cam membranes, ATP+GDP): failed to either restore or enhance | effect on Anx I phosphorylation, wild type membranes ([2]; wild type murine membranes, γ[32P]ATP+GDP): enhancement was also observed | enhancement of phosphorylation of the 37 kDa protein ([3]; ATP (50 nM)+GDP (500 nM), 37° C., 5 min (ref 15)): 20 fold | effect on p37 (Anx I) phosphorylation ([3]; previously found (ref 15)): enhanced

Nc1ncnc2c1ncn2[C@@H]1O[C@@H]2COP(=O)(O)O[C@H]2[C@H]1O [cyclic AMP]
inhibition of p37 phosphorylation ([4]; observed whilst characterising NDPK): inhibiton of p^37 phosphorylation

KENIIGVSYDEYR [synthetic peptide corresponding to the F508 region of ΔF508 mutant human CFTR]
phosphorylatable protein bound by and eluted from peptide-affinity column [5]: No phosphorylation was observed

CCOC(=O)OC(=O)OCC [diethylpyrocarbamate]
effect of pre-incubation on Anx I phospho-linkage [6]: inhabitable

CCCC(=O)Nc1ncnc2c1ncn2[C@@H]1O[C@@H]2COP(=O)(O)O[C@H]2[C@H]1O [N^6-mbcAMP, N^6-monobutyryladenosine 3′:5′ cyclic monophosphate]
concentration of maximal inhibition of (histidine) phosphorylation of annexin I ([4]; pre-incubation 0-1 mM, 4° C., 30 min, γ[32P]ATP 37° C., 5 min): 1 mM

KENIIFGVSYDEYR [synthetic peptide corresponding to the F508 region of wild-type human CFTR]
phosphorylatable protein bound by and eluted from peptide-affinity column [5]: bound protein(s) that could be phosphorylated | phosphorylatable protein bound by and eluted from peptide-affinity column ([5]; listed as wild-type peptide): a phosphoprotein was observed in fraction 22
